Experimental data taken from patent US20230146699A1, “EDTA System for Reducing Browning in Mycohide Materials” (MycoWorks, Inc., priority 2021, published 2023).

Test system: mycohide sheets (mycelium crusts); browning by polyphenol oxidases (PPOs)
Test: Visual assessment of browning reduction in mycohide (mycelium) sheets/crusts treated with chelating agent
Details: for reduction of surface browning (FIGS. 5-6): 1 mM and 5 mM chelator, plasticized mycohide, dried samples, 15% ALE fatliquor dip, EDTA compared with EGTA
Protocol: In some embodiments, full sized cotton sheets are treated as defined by four groups: 1) plasticization without any treatment, 2) EDTA treatment only after harvesting sheets (5 mM EDTA 14 in water added on top of mycelia layer after harvest and gently massaged; then plasticize this section in glycerin/water solution), 3) EDTA treatment only during plasticization (plasticize in glycerin/water solution 40%/60% glycerin to water with EDTA at 5 mM), and/or 4) EDTA treatment on both harvested sheets and during plasticization (see above for conditions).

SMILES	reduction of browning, crusts after fatliquoring, wet state (FIG. 9) (1 mM EDTA in water, 70 C for 0.5 hour first, vs control (no EDTA))	reduction of surface browning (FIGS. 5-6)	reduction of browning, crusts after fatliquoring, wet state (FIG. 9) (5 mM EDTA, 70 C heating step, vs 1 mM EDTA)	reduction of browning, crusts after fatliquoring, dry state (FIG. 10) (5 mM vs 1 mM EDTA, with or without 70 C (0.5 hour) heating step)	color uniformity of mycelium sheets (EDTA treated sheets vs heat treatment with or without EDTA (FIGS. 16-18))	browning after EDTA added at different process steps (FIG. 20A, 20B) (full sized cotton sheets, 5 mM EDTA and 16 mM NaOH after harvest and/or during plasticization, varied fat liquor solution conditions)	optimum concentration to achieve browning reduction (mycelium sheets, concentrations of EDTA and EGTA optimized) [mM]	effect of adding EDTA during tanning (D&S) (sheets previously treated with EDTA during harvest or plasticization (FIG. 18A, 18B))
O=C(O)CN(CCN(CC(=O)O)CC(=O)O)CC(=O)O [EDTA, ethylenediaminetetraacetic acid]	more effective at reducing browning than a control group	achieves greater reductions in browning	even greater reductions in browning	not more effective than a lower concentration of EDTA at reducing browning	best color uniformity	observed decrease in browning	5	added whitening effect
O=C(O)CN(CCOCCOCCN(CC(=O)O)CC(=O)O)CC(=O)O [EGTA, egtazic acid]		may be effectively applied						
